{"source": "patent US20260327225A1", "about": "“HETEROCYCLIC COMPOUNDS AS TRIGGERING RECEPTOR EXPRESSED ON MYELOID CELLS 2 AGONISTS AND METHODS OF USE” (VIGIL NEUROSCIENCE, INC., priority 2023, published 2026)", "note": "pEC50: −log10 of the molar value.", "data": [{"biological_target": "T1, human TREM2 (Homo sapiens, UniProt Q9NZC2)", "T1 construct": "expressed in transfected cells; host or cells: HEK293T-hTREM2 cells (HEK cell line expressing human TREM2 and DAP12)", "T1 sequence (Q9NZC2 19-230)": "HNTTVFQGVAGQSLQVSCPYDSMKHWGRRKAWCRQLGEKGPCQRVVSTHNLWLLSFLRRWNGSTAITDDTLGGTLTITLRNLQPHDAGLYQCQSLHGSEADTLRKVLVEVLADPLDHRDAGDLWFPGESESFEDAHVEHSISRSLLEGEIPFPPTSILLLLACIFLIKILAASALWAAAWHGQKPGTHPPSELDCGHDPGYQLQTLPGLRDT", "T1 sequence (O43914 22-113 partner)": "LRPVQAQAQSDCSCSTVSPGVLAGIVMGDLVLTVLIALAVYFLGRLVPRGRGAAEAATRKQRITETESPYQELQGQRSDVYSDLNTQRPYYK", "assay": "TREM2 agonist potency by cellular phosphorylation of Syk (AlphaLisa) in HEK293T-hTREM2 cells expressing human TREM2 and DAP12", "assay_type": "cell-based", "details": "not given", "experimental": "(§1) In vitro Measurement of Triggering Receptor Expressed on Myeloid Cells 2 activity using cellular phosphorylation of Spleen Tyrosine Kinase (“Syk”) Assays\n(§2) Measurement of TREM2 agonist potency was done using a HEK cell line expressing human TREM2 and DAP12 (HEK293T-hTREM2 cells). Binding of small molecules to, and activation of, TREM2 increases the phosphorylation of Syk. The resultant levels of Syk phosphorylation are measured using a commercial AlphaLisa reagent kit. To perform the assay, HEK-hTREM2 cells were plated at 14,000 cells per well in a 384 well plate, in 25 μL of complete growth media and incubated at 37° C., 5% CO2 for 20-24 hours.\n(§3) Prior to the assay, test compounds were diluted in the 384 well plates in assay buffer and allowed to equilibrate for 30 minutes. Growth media was removed from cell plates by inversion on blotting paper, and 25 μL of test articles in assay buffer was added to cells. Cells were incubated for 45 minutes at room temperature. After 45 minutes, assay buffer was removed and 10 μL of lysis buffer was added. Plates were shaken for 20 minutes at 350 RPM at room temperature. After complete lysis, AlphaLisa reagents were added to the lysate, and fluourescence intensity was measured using a Perkin Elmer Envision plate reader. Intensities were used to generate a standard curve, and % activation was calculated. Curve fitting was performed using Prism v9 software, log(agonist) vs response—variable slope (four parameters), and EC50s were calculated from the curve fit.\n(§4) The results presented in Table B have been generated with the in vitro assay described above. This assay may be used to test any of the compounds described herein to assess and characterize a compound's ability to act as an agonist of TREM2.", "values": [{"smiles": "Cc1cc2c(-c3ccccc3)nc(N3C[C@@H](C)O[C@@H](c4cnn(C5CC5)c4)C3)nc2nc1C", "note": "[Example 68, (2S,6R)-2-(1-cyclopropylpyrazol-4-yl)-4-(6,7-dimethyl-4-phenylpyrido[2,3-d]pyrimidin-2-yl)-6-methyl-morpholine]", "pEC50": "> 7.00"}]}, {"biological_target": "T1, human TREM2", "assay": "TREM2 agonist potency by cellular phosphorylation of Syk (AlphaLisa) in HEK293T-hTREM2 cells expressing human TREM2 and DAP12", "assay_type": "cell-based", "details": "HEK293 cells expressing hTREM2 and DAP12; 45 minutes at room temperature; Syk phosphorylation, AlphaLisa; read-out: hTREM2 EC50", "experimental": "as §1, §2, §3, §4", "values": [{"smiles": "Cc1nc2ccc(C3CC(c4nc(-c5ccc(F)cc5F)c5nc(C)c(C)nc5n4)CCO3)cc2o1", "note": "(stereo not shown) [Example 113, 6-[4-[4-(2,4-difluorophenyl)-6,7-dimethyl-pteridin-2-yl]tetrahydropyran-2-yl]-2-methyl-1,3-benzoxazole]", "pEC50": "> 7.00"}, {"smiles": "Cc1nc2nc([C@H]3CCO[C@@H](c4ccnc(N(C)C)c4)C3)nc(C34CC(C(F)(F)F)(C3)C4)c2nc1C", "note": "(racemic) [Example 124, N,N-dimethyl-4-[rac-4-[6,7-dimethyl-4-[3-(trifluoromethyl)-1-bicyclo[1.1.1]pentanyl]pteridin-2-yl]tetrahydropyran-2-yl]pyridin-2-amine]", "pEC50": "> 7.00"}, {"smiles": "Cc1nc2nc([C@H]3CCO[C@@H](c4cnn(C5CC5)c4)C3)nc(C34C5C6C3C3C4C5C63C(F)(F)F)c2nc1C", "note": "(stereo partly drawn) [Example 143, 2-((2R,4S)-2-(1-cyclopropyl-1H-pyrazol-4-yl)tetrahydro-2H-pyran-4-yl)-6,7-dimethyl-4-(4-(trifluoromethyl)-cuban-1-yl)pteridine]", "pEC50": "> 7.00"}, {"smiles": "Cc1noc(-c2cc3c(-c4ccc(F)cc4F)nc(N4CCCC(N5CCOCC5)C4)nc3nc2C)n1", "note": "(stereo not shown) [Example 15, 4-[1-[4-(2,4-difluorophenyl)-7-methyl-6-(3-methyl-1,2,4-oxadiazol-5-yl)pyrido[2,3-d]pyrimidin-2-yl]-3-piperidyl]morpholine]", "pEC50": "< 6.30"}, {"smiles": "Cc1nc2ccc(C3CC(c4nc(-c5ccc(F)cc5F)c5nc(C)c(C)nc5n4)CCO3)cc2s1", "note": "(stereo not shown) [Example 115, 6-[4-[4-(2,4-difluorophenyl)-6,7-dimethyl-pteridin-2-yl]tetrahydropyran-2-yl]-2-methyl-1,3-benzothiazole]", "pEC50": "> 7.00"}, {"smiles": "Cc1nc2nc(N3C[C@@H](C)O[C@@H](c4cnn(C5CC5)c4)C3)nc(C34CC(C(F)(F)F)(C3)C4)c2nc1C1CN(C)C1", "note": "[Example 87, (2S,6R)-2-(1-cyclopropylpyrazol-4-yl)-6-methyl-4-[7-methyl-6-(1-methylazetidin-3-yl)-4-[3-(trifluoromethyl)-1-bicyclo[1.1.1]pentanyl]pteridin-2-yl]morpholine]", "pEC50": "6.30 to 7.00"}, {"smiles": "Cc1nc2nc([C@H]3CCO[C@@H](c4cn(C)c(=O)s4)C3)nc(C34CC(C(F)(F)F)(C3)C4)c2nc1C", "note": "(racemic) [Example 106, 3-methyl-5-[rac-(2R,4S)-4-[6,7-dimethyl-4-[3-(trifluoromethyl)-1-bicyclo[1.1.1]pentanyl]-pteridin-2-yl]tetrahydropyran-2-yl]thiazol-2-one]", "pEC50": "> 7.00"}, {"smiles": "Cc1cc(-c2cc3c(-c4ccc(F)cc4F)nc(N4C[C@@H](C)O[C@@H](c5cnn(C6CC6)c5)C4)nc3nc2C)on1", "note": "[Example 11, (2S,6R)-2-(1-cyclopropylpyrazol-4-yl)-4-[4-(2,4-difluorophenyl)-7-methyl-6-(3-methylisoxazol-5-yl)pyrido[2,3-d]pyrimidin-2-yl]-6-methyl-morpholine]", "pEC50": "> 7.00"}, {"smiles": "Cc1nc2nc(N3C[C@@H](C)O[C@@H](c4cnn(C5CC5)c4)C3)nc(C34C5C6C7C5C3C7C64)c2nc1C", "note": "(stereo partly drawn) [Example 121, (2S,6R)-4-(4-cuban-1-yl-6,7-dimethyl-pteridin-2-yl)-2-(1-cyclopropylpyrazol-4-yl)-6-methyl-morpholine]", "pEC50": "6.30 to 7.00"}, {"smiles": "Cc1nc2nc(N3C[C@@H](C)O[C@@H](c4cnn(C5CC5)c4)C3)nc(C34CC(C(F)(F)F)(C3)C4)c2cc1C(F)(F)F", "note": "[Example 74, (2S,6R)-2-(1-cyclopropyl-1H-pyrazol-4-yl)-6-methyl-4-(7-methyl-6-(trifluoromethyl)-4-(3-(trifluoromethyl)-bicyclo[1.1.1]pentan-1-yl)pyrido[2,3-d]pyrimidin-2-yl)morpholine]", "pEC50": "> 7.00"}, {"smiles": "Cc1nc2nc(N3C[C@@H](C)O[C@@H](c4cnn(C5CC5)c4)C3)nc(-c3ccc(F)cc3F)c2cc1C(=O)O", "note": "[Example 3, 2-[(2S,6R)-2-(1-cyclopropylpyrazol-4-yl)-6-methyl-morpholin-4-yl]-4-(2,4-difluorophenyl)-7-methyl-pyrido[2,3-d]pyrimidine-6-carboxylic acid]", "pEC50": "< 6.30"}, {"smiles": "Cc1noc(-c2cc3c(-c4ccc(F)cc4F)nc([C@H]4CCO[C@@H](c5cnn(C6CC6)c5)C4)nc3nc2C)n1", "note": "(racemic) [Example 19, 5-[4-(2,4-difluorophenyl)-7-methyl-2-[rac-(2R,4S)-2-(1-cyclopropylpyrazol-4-yl)-tetrahydropyran-4-yl]pyrido[2,3-d]pyrimidin-6-yl]-3-methyl-1,2,4-oxadiazole]", "pEC50": "> 7.00"}, {"smiles": "Cc1nc2nc([C@H]3CCO[C@@H](c4cnn(C5CC5)c4)C3)nc(C34CC(C#N)(C3)C4)c2nc1C", "note": "[Example 119, 3-(2-((2R,4S)-2-(1-cyclopropyl-1H-pyrazol-4-yl)tetrahydro-2H-pyran-4-yl)-6,7-dimethylpteridin-4-yl)bicyclo[1.1.1]pentane-1-carbonitrile]", "pEC50": "6.30 to 7.00"}, {"smiles": "Cc1nc2nc(C3CCOC(c4cnnc(N(C)C)c4)C3)nc(C34CC(C(F)(F)F)(C3)C4)c2nc1C", "note": "(racemic) [Example 129, N,N-dimethyl-5-[rac-cis-4-[6,7-dimethyl-4-[3-(trifluoromethyl)-1-bicyclo[1.1.1]pentanyl]pteridin-2-yl]tetrahydropyran-2-yl]pyridazin-3-amine]", "pEC50": "> 7.00"}, {"smiles": "Cc1nc2nc(N3C[C@@H](C)O[C@@H](c4cnn(C5CC5)c4)C3)nc(-c3ccc(=O)n(C)c3)c2nc1C", "note": "[Example 104, 5-[2-[(2S,6R)-2-(1-cyclopropylpyrazol-4-yl)-6-methyl-morpholin-4-yl]-6,7-dimethyl-pteridin-4-yl]-1-methyl-pyridin-2-one]", "pEC50": "< 6.30"}, {"smiles": "Cc1nc2nc(N3C[C@@H](C)O[C@@H](c4cnn(C5CC5)c4)C3)nc(-c3ccc(F)cc3F)c2cc1C1=NCCO1", "note": "[Example 7, (2S,6R)-2-(1-cyclopropylpyrazol-4-yl)-4-[4-(2,4-difluorophenyl)-6-(4,5-dihydrooxazol-2-yl)-7-methyl-pyrido[2,3-d]pyrimidin-2-yl]-6-methyl-morpholine]", "pEC50": "> 7.00"}, {"smiles": "CC(=O)c1cc2c(-c3ccc(F)cc3F)nc(N3C[C@@H](C)O[C@@H](c4cnn(C5CC5)c4)C3)nc2nc1C", "note": "[Example 4, 1-[2-[(2S,6R)-2-(1-cyclopropylpyrazol-4-yl)-6-methyl-morpholin-4-yl]-4-(2,4-difluorophenyl)-7-methyl-pyrido[2,3-d]pyrimidin-6-yl]ethanone]", "pEC50": "> 7.00"}, {"smiles": "Cc1nc2nc(C3CCOC(C4CCn5nccc5C4)C3)nc(C34CC(C(F)(F)F)(C3)C4)c2nc1C", "note": "(stereo not shown) [Example 110, 6,7-dimethyl-2-[2-(4,5,6,7-tetrahydropyrazolo[1,5-a]pyridin-5-yl)tetrahydropyran-4-yl]-4-[3-(trifluoromethyl)-1-bicyclo[1.1.1]pentanyl]pteridine]", "pEC50": "> 7.00"}, {"smiles": "Cc1noc(-c2cc3c(C4CCCCC4)nc(N4CCO[C@@H](c5cnn(C)c5)C4)nc3nc2C)n1", "note": "[Example 44, (2S)-4-[4-cyclohexyl-7-methyl-6-(3-methyl-1,2,4-oxadiazol-5-yl)-pyrido [2,3-d]-pyrimidin-2-yl]-2-(1-methyl-pyrazol-4-yl) morpholine]", "pEC50": "6.30 to 7.00"}, {"smiles": "Cc1nc2nc(C3CCOC(c4cnn5c4CCCC5)C3)nc(C34CC(C(F)(F)F)(C3)C4)c2nc1C", "note": "(stereo not shown) [Example 123, 6,7-dimethyl-2-[2-(4,5,6,7-tetrahydropyrazolo[1,5-a]pyridin-3-yl)tetrahydropyran-4-yl]-4-[3-(trifluoromethyl)-1-bicyclo[1.1.1]pentanyl]pteridine]", "pEC50": "< 6.30"}, {"smiles": "Cc1nc2nc(C3CCOC(c4ccn5nccc5c4)C3)nc(-c3ccc(F)cc3F)c2nc1C", "note": "(stereo not shown) [Example 93, 4-(2,4-difluorophenyl)-6,7-dimethyl-2-(2-pyrazolo[1,5-a]pyridin-5-yltetrahydropyran-4-yl)pteridine]", "pEC50": "> 7.00"}, {"smiles": "COc1ncc([C@H]2C[C@@H](c3nc(C45CC(C(F)(F)F)(C4)C5)c4nc(C)c(C)nc4n3)CCO2)s1", "note": "(racemic) [Example 117, 2-methoxy-5-[rac-(2R,4S)-4-[6,7-dimethyl-4-[3-(trifluoromethyl)-1-bicyclo[1.1.1]pentanyl]pteridin-2-yl]tetrahydropyran-2-yl]thiazole]", "pEC50": "> 7.00"}, {"smiles": "Cc1nc2c(C34CC(C(F)(F)F)(C3)C4)nc(N3C[C@@H](C)O[C@@H](c4cnn(C5CC5)c4)C3)nc2c(=O)n1C", "note": "[Example 127, 6-[(2S,6R)-2-(1-cyclopropylpyrazol-4-yl)-6-methyl-morpholin-4-yl]-2,3-dimethyl-8-[3-(trifluoromethyl)-1-bicyclo[1.1.1]pentanyl]pyrimido[5,4-d]pyrimidin-4-one]", "pEC50": "> 7.00"}, {"smiles": "Cc1nnc(-c2cc3c(-c4ccc(F)cc4F)nc(N4C[C@@H](C)O[C@@H](c5cnn(C6CC6)c5)C4)nc3nc2C)s1", "note": "[Example 10, (2S,6R)-2-(1-cyclopropylpyrazol-4-yl)-4-[4-(2,4-difluorophenyl)-7-methyl-6-(5-methyl-1,3,4-thiadiazol-2-yl)pyrido[2,3-d]pyrimidin-2-yl]-6-methyl-morpholine]", "pEC50": "> 7.00"}]}]}
